Laboratory results taken from US10188634B2, “3-(3H-imidazo[4,5-C]pyridin-2-yl)-1 H-pyrazolo[4,3-B]pyridines and therapeutic uses thereof” (Samumed, LLC, priority 2015, dated 2019).

Tests used:
Type in all cases: cell-based
[1] = tested on: SW480 colon cancer cells; experiment: Cell viability assay (CellTiter-Blue) in SW480 colon cancer cells; conditions: Homo sapiens, 96 h; for EC50: four days incubation, CellTiter-Blue cell viability; for inhibition at 10 µM: four days, CellTiter-Blue, read-out: percent inhibition at 10 μM (given for EC50 of >10 μM)
Description: Representative compounds were screened using the following assay procedure to assess the effect on cell viability as described below.
Each compound was dissolved in DMSO as a 10 mM stock and used to prepare compound source plates. Serial dilution (1:3, 8-point dose-response curves from 10 μM to 0.004 μM) and compound transfer was performed using the ECHO 550 (Labcyte, Sunnyvale, Calif.) into 96-well clear bottom, black-walled plates (Corning-Costar).
Approximately 2×10^3 SW480 colon cancer cells were seeded into each well and allowed to incubate in the presence or absence of compound for four days at 37° C./5% CO2. Eight replicates of DMSO-treated cells served as controls and cells treated with compound were performed in duplicate.
After incubation, 20 μL of CellTiter-Blue (Promega) was added to each well allowed to incubate for approximately 3 hours. This reagent was a buffered solution which contains resazurin, metabolically active cells were able to reduce rezarurin (blue) into resorufin (pink) which was highly fluorescent. This measured fluorescence was used as a readout for cell viability.
After incubation, the plates were read at Ex 560 nm Em 590 nm (Cytation 3, BioTek). Dose-response curves were generated and EC50 concentration values were calculated using non-linear regression curve fit in the GraphPad Prism (San Diego, Calif.) or Dotmatics' Studies Software (Bishops Stortford, UK). For EC50 of >10 μM, the percent inhibition at 10 μM is provided.

[2] = tested on: Wnt activity (Sp5-Luc reporter, human Sp5 promoter with eight TCF/LEF binding sites) in SW480 colon carcinoma cells; experiment: Screening assay for Wnt activity: Sp5-Luc reporter gene assay in SW480 cells; conditions: 10-point dose-response starting from 10 μM, overnight incubation
Text: The screening assay for Wnt activity is described as follows. Reporter cell lines can be generated by stably transducing cancer cell lines (e.g., colon cancer) or primary cells (e.g., IEC-6 intestinal cells) with a lentiviral construct that includes a Wnt-responsive promoter driving expression of the firefly luciferase gene.
SW480 colon carcinoma cells were transduced with a lentiviral vector expressing luciferase with a human Sp5 promoter consisting of a sequence of eight TCF/LEF binding sites. SW480 cells stably expressing the Sp5-Luc reporter gene and a hygromycin resistance gene were selected by treatment with 150 μg/mL of hygromycin for 7 days. These stably transduced SW480 cells were expanded in cell culture and used for all further screening activities. Each compound was dissolved in DMSO as a 10 mM stock and used to prepare compound source plates. Serial dilution (1:3, 10-point dose-response curves starting from 10 μM) and compound transfer was performed using the ECHO 550 (Labcyte, Sunnyvale, Calif.) into 384-well white solid bottom assay plates (Greiner Bio-One) with appropriate DMSO backfill for a final DMSO concentration of 0.1%. For Sp5-Luc reporter gene assays, the cells were plated at 4,000 cells/well in 384-well plates with medium containing 1% fetal bovine serum and incubated overnight at 37° C. and 5% CO2. Following incubation, 20 μl of BrightGlo luminescence reagent (Promega) was added to each well of the 384-well assay plates. The plates were placed on an orbital shaker for 2 min and then luminescence was quantified using the Envision (Perkin Elmer) plate reader. Readings were normalized to DMSO only treated cells, and normalized activities were utilized for EC50 calculations using the dose-response log (inhibitor) vs. response -variable slope (four parameters) nonlinear regression feature available in GraphPad Prism 5.0 (or Dotmatics). For EC50 of >10 μM, the percent inhibition at 10 μM is provided.

[3] = tested on: LL29 cells (primary human fibroblasts derived from IPF patients) treated with TGF-β1, α-smooth muscle actin; experiment: Inhibition of the fibrotic process: αSMA staining in TGF-β1 treated primary human fibroblasts from IPF patients (LL29 cells); conditions: Fibroblast, 96 h; for EC50: LL29 cells treated with TGF-β1 (20 ng/mL), 4 days
Text: Representative compounds were screened using primary human fibroblasts (derived from IPF patients) treated with TGF-β1 to determine their ability to inhibit the fibrotic process.
Human Fibroblast Cell Culture: Primary human fibroblasts derived from IPF patients (LL29 cells) [^1Xiaoqiu Liu, et.al., “Fibrotic Lung Fibroblasts Show Blunted Inhibition by cAMP Due to Deficient cAMP Response Element-Binding Protein Phosphorylation”, Journal of Pharmacology and Experimental Therapeutics (2005), 315(2), 678-687; ^2Watts, K. L., et.al., “RhoA signaling modulates cyclin D1 expression in human lung fibroblasts; implications for idiopathic pulmonary fibrosis”, Respiratory Research (2006), 7(1), 88] were obtained from American Type Culture Collection (ATCC) and expanded in F12 medium supplemented with 15% Fetal Bovine Serum and Penicillin/Streptomycin.
Compound Screening: Each compound was dissolved in DMSO as a 10 mM stock and used to prepare compound source plates. […] LL29 cells are plated at 1,500 cells/well in 80 μL/well F12 medium supplemented with 1% Fetal Bovine Serum. One hour after addition of the cells, TGF-β1 (Peprotech; 20 ng/mL) was added to the plates to induce fibrosis (ref. 1 and 2 above). Wells treated with TGF-β1 and containing DMSO were used as controls. Cells were incubated at 37° C. and 5% CO2 for 4 days. Following incubation for 4 days, SYTOX green nucleic acid stain (Life Technologies [Thermo Fisher Scientific]) was added to the wells at a final concentration of 1 μM and incubated at room temperature for 30 min. Cells were then fixed using 4% formaldehyde (Electron Microscopy Sciences), washed 3 times with PBS followed by blocking and permeabilization using 3% Bovine Serum Albumin (BSA; Sigma) and 0.3% Triton X-100 (Sigma) in PBS. Cells were then stained with antibody specific to α-smooth muscle actin (αSMA; Abcam) (ref. 1 and 2 above) in 3% Bovine Serum Albumin (BSA; Sigma) and 0.3% Triton X-100 (Sigma) in PBS, and incubated overnight at 4° C. Cells were then washed 3 times with PBS, followed by incubation with Alexa Flor-647 conjugated secondary antibody (Life Technologies [Thermo Fisher Scientific]) and DAPI at room temperature for 1 hour. Cells were then washed 3 times with PBS and plates were sealed for imaging. αSMA staining was imaged by excitation at 630 nm and emission at 665 nm and quantified using the Compartmental Analysis program on the CellInsight CX5 (Thermo Scientific). Dead or apoptotic cells were excluded from analysis based on positive SYTOX green staining. % of total cells positive for αSMA were counted in each well and normalized to the average of 11 wells treated with TGF-β1 on the same plate using Dotmatics' Studies Software. The normalized averages (fold change over untreated) of 3 replicate wells for each compound concentration were used to create dose-responses curves and EC50 values were calculated using non-linear regression curve fit in the Dotmatics' Studies Software. For EC50 of >10 μM, the percent inhibition at 10 μM is provided.

[4] = tested on: IL-6 in THP-1 cells; experiment: Inhibition of IL-6 in LPS-stimulated THP-1 human monocyte cells (HTRF); conditions: 500 ng/mL LPS, 22 hours, IL-6 HTRF
Description: Human Monocyte Cell Culture: Human monocyte cell line (THP-1 cells; Catalog # TIB-202, ATCC, Manassas, Va.) were cultured in Roswell Park Memorial Institute (RPMI) 1640 Medium (Catalog #21870-100, Buffalo, N.Y.) with 1% L-glutamine, 1% HEPES, 1% Sodium Pyruvate, 2% Sodium Bicarbonate supplemented with 100 units/mL penicillin, 50 μg/mL streptomycin, 2-mercaptoethanol (0.05 mM) [basal medium] and 10% fetal bovine serum (Catalog #16140089, Life Technologies, Carlsbad, Calif.) at 37° C. and 5% CO2.
Compound Screening: THP-1 cells were cultured in basal media with 1% FBS for 24 hours before the start of the assay. Each compound was dissolved in DMSO as a 10 mM stock and used to prepare compound source plates. Serial dilution (1:3, 10-point dose-response curves starting from 10 μM) and compound transfer was performed using the ECHO 550 (Labcyte, Sunnyvale, Calif.) into 384-well white low volume assay plates (Greiner Bio-One) with appropriate DMSO backfill for a final DMSO concentration of 0.1%. THP-1 cells were plated at 5000 cells/well in the 384-well plates and incubated at 37° C. for 2 h. 500 ng/mL of LPS was added after 2 hours and cells were incubated for another 22 hours at 37° C. Plates were spun in a centrifuge for 1 minute at […] and a mixture of anti-IL6 XL665, and anti-IL6 Cryptate diluted in reconstitution buffer (Cisbio Inc.) was added to each well. Following incubation for 3 hrs at room temperature, Homogeneous Time-Resolved Fluorescence (HTRF) was measured using the Envision (Perkin Elmer) at 665 nm and […]. The ratio of fluorescence at 665 nm to 620 nm was used as a readout for IL6 quantification. All samples were processed in duplicate. Readings were normalized to DMSO treated cells and normalized activities were utilized for EC50 calculations using the dose-response log (inhibitor) vs. response -variable slope (four parameters) nonlinear regression feature available in GraphPad Prism 5.0 (or Dotmatics). For EC50 of >10 μM, the percent inhibition at 10 μM is provided.

| SMILES | EC50 [1] [µM] | EC50 [2] [µM] | EC50 [3] [µM] | EC50 [4] [µM] | inhibition at 10 µM [1] [%] | inhibition at 10 µM ([3]; LL29 cells treated with TGF-β1, 4 days, at 10 μM, read-out: percent inhibition in brackets (given for EC50 >10 μM)) [%] |
| --- | --- | --- | --- | --- | --- | --- |
| CN1CCN(c2cncc3[nH]c(-c4n[nH]c5ccc(-c6cncc(OCc7ccccc7)c6)nc45)nc23)CC1 [Compound 618, 5-(5-(Benzyloxy)pyridin-3-yl)-3-(7-(4-methylpiperazin-1-yl)-3H-imidazo[4,5-c]pyridin-2-yl)-1H-pyrazolo[4,3-b]pyridine] | 4.6 | 4.63 | 1.9 | 1.6 | – | – |
| c1cc(-c2cncc3[nH]c(-c4n[nH]c5ccc(-c6cncc(OCCN7CCCC7)c6)nc45)nc23)co1 [Compound 646, 3-(7-(Furan-3-yl)-3H-imidazo[4,5-c]pyridin-2-yl)-5-(5-(2-(pyrrolidin-1-yl)ethoxy)pyridin-3-yl)-1H-pyrazolo[4,3-b]pyridine] | > 10 | 4.62 | 3.84 | 0.435 | 33.1 | – |
| COc1cncc(-c2ccc3[nH]nc(-c4nc5c(-c6ccoc6)cncc5[nH]4)c3n2)c1 [Compound 648, 3-(7-(Furan-3-yl)-3H-imidazo[4,5-c]pyridin-2-yl)-5-(5-methoxylpyridin-3-yl)-1H-pyrazolo[4,3-b]pyridine] | 1.77 | 0.849 | 0.404 | 7.04 | – | – |
| Cc1ccc(-c2cncc3[nH]c(-c4n[nH]c5ccc(-c6cncc(OC7CCCCC7)c6)nc45)nc23)s1 [Compound 691, 5-(5-(Cyclohexyloxy)pyridin-3-yl)-3-(7-(5-methylthiophen-2-yl)-3H-imidazo[4,5-c]pyridin-2-yl)-1H-pyrazolo[4,3-b]pyridine] | 4.63 | 4.03 | 1.75 | 0.003 | – | – |
| Cc1ncc(-c2ccc3[nH]nc(-c4nc5c(-c6cc(F)cc(NCCN(C)C)c6)cncc5[nH]4)c3n2)n1C [Compound 737, N^1-(3-(2-(5-(1,2-Dimethyl-1H-imidazol-5-yl)-1H-pyrazolo[4,3-b]pyridin-3-yl)-3H-imidazo[4,5-c]pyridin-7-yl)-5-fluorophenyl)-N^2,N^2-dimethylethane-1,2-diamine] | > 10 | 3.85 | 8.95 | 1.17 | 46.5 | – |
| CN(C)CCNc1cc(F)cc(-c2cncc3[nH]c(-c4n[nH]c5ccc(-c6cncc(OCc7ccccc7)c6)nc45)nc23)c1 [Compound 746, N^1-(3-(2-(5-(5-(Benzyloxy)pyridin-3-yl)-1H-pyrazolo[4,3-b]pyridin-3-yl)-3H-imidazo[4,5-c]pyridin-7-yl)-5-fluorophenyl)-N^2,N^2-dimethylethane-1,2-diamine] | 3.3 | 2.72 | 2.93 | 1.6 | – | – |
| CN(C)CCNc1cc(F)cc(-c2cncc3[nH]c(-c4n[nH]c5ccc(-c6cnccn6)nc45)nc23)c1 [Compound 748, N^1-(3-Fluoro-5-(2-(5-(pyrazin-2-yl)-1H-pyrazolo[4,3-b]pyridin-3-yl)-3H-imidazo[4,5-c]pyridin-7-yl)phenyl)-N^2,N^2-dimethylethane-1,2-diamine] | 3.74 | 3.95 | > 10 | 4.23 | – | 41.3 |
